The values that follow come from paper PMC3621123 (Journal of medicinal chemistry, 2013).

The target of assay [1] is T1, BasE (Acinetobacter baumannii, UniProt A0A0D5YGP3). To be noted: read-out: KD1, equilibrium dissociation constant of probe 14 for BasE; cited from earlier work.
In a further assay the test system is A. baumannii. To be noted: ref unpublished results, Brian Beck, Laura Celia, ATCC; cited from earlier work.
In a further assay the test system is K. pneumoniae. To be noted: ref unpublished results, Brian Beck, Laura Celia, ATCC; cited from earlier work.
The test system of the next assay is E. coli. To be noted: ref unpublished results, Brian Beck, Laura Celia, ATCC; cited from earlier work.
The next assay has as its system P. aeruginosa. To be noted: ref unpublished results, Brian Beck, Laura Celia, ATCC; cited from earlier work.
Assay [2] concerns the target T1, BasE. Nature of the assay: biochemical. The following applies: for fold loss of affinity/potency toward BasE relative to 15: ratio of KD to lead compound 15; for Kd: KD (nM) BasE, FP displacement, 20 nM Fl-Sal-AMS 14, 200 nM BasE, pH 7.5, 25 °C; for fold increase in affinity toward BasE relative to 15: ratio of KD of lead compound 15 to compound. The class given is binding.

The next assay deals with MbtA (Mycobacterium tuberculosis, UniProt P71716). Nature of the assay: Fluorescence polarization displacement of Fl-Sal-AMS 14 from MbtA. To be noted: for fold loss of affinity toward MbtA relative to 15: ratio of KD to lead compound 15. In kind it is binding. A general note: Polarisation of emitted light reports the rotation of a fluorescent probe.

Where “and” joins values, the source holds several entries; their conditions need not be identical. Equal entries are not always repeated. Where two headings read alike, the source gives them in different places. Bounds are passed on as bounds.

MbtA, sequence (P71716 whole entry): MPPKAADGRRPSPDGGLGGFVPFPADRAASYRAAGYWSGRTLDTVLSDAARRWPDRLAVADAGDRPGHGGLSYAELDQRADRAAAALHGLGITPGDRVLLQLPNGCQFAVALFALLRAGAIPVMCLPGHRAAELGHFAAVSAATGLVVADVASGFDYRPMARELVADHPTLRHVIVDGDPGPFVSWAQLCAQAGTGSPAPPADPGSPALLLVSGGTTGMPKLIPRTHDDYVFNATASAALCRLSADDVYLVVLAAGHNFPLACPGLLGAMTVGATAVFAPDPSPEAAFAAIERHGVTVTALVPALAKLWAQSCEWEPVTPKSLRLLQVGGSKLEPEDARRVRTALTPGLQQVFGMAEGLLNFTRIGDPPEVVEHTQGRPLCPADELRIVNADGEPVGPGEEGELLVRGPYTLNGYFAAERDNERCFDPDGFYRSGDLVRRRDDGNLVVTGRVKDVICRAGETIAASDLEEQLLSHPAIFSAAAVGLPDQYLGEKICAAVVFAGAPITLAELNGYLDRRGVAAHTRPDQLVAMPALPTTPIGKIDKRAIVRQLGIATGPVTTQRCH

With “22-O-{2-[2-(2-{[(fluorescein-5-yl)carbonyl]amino}ethoxy)ethoxy]ethoxy}-52-O-[N-(salicyl)sulfamoyl]adenosine [Compound 14]”, on BasE [1], the Kd was 84.3 nM.
Take `Nc1ncnc2c1ncn2[C@@H]1O[C@H](COS(=O)(=O)NC(=O)c2cccc(O)c2O)[C@@H](O)[C@H]1O` [2,3-DHB-AMS, 5′-O-[N-(2,3-dihydroxybenzoyl)sulfamoyl]adenosine]: the “activity against A. baumannii” value in the assay on A. baumannii is on record as “no activity”. In addition, the “activity against K. pneumoniae” value with K. pneumoniae is “no activity”. Besides, in the assay on E. coli, the “activity against E. coli” value is listed as “no activity”. For the same compound, the “activity against P. aeruginosa” value in the assay on P. aeruginosa is on record as “no activity”.
For `O=C(O)c1cc(-c2ccccc2)cc2c1cnn2Cc1ccncc1` [Compound 16, 6-Phenyl-1-(pyridin-4-ylmethyl)-1H-indazole-4-carboxylic acid], the “fold loss of affinity/potency toward BasE relative to 15” value on BasE [2] worked out at 2 fold.
With `O=C(O)c1cc(-c2ccccc2)cc2c1ccn2Cc1ccncc1` [Compound 17, 6-Phenyl-1-(pyridin-4-ylmethyl)-1H-indole-4-carboxylic acid], the “fold loss of affinity/potency toward BasE relative to 15” value at BasE [2] stood at 1400 fold.
On to `CCOC(=O)c1cc(-c2ccccc2)nc2c1cnn2Cc1ccncc1` [Compound 18, Ethyl 6-phenyl-1-(pyridin-4-ylmethyl)-1H-pyrazolo[3,4-b]pyridine-4-carboxylate], for which the “fold loss of affinity/potency toward BasE relative to 15” value on BasE [2] was found to be 60 fold.
In the case of `OCc1cc(-c2ccccc2)nc2c1cnn2Cc1ccncc1` [Compound 19, 4-Hydroxymethyl-6-phenyl-1-(pyridin-4-ylmethyl)-1H-pyrazolo[3,4-b]pyridine], the “fold loss of affinity/potency toward BasE relative to 15” value at BasE [2] was 2.8 fold and 3 fold.
With `Nc1cc(-c2ccccc2)nc2c1cnn2Cc1ccncc1` [Compound 21, 6-Phenyl-1-(pyridin-4-ylmethyl)-1H-pyrazolo[3,4-b]pyridin-4-amine], the “fold loss of affinity/potency toward BasE relative to 15” value on BasE [2] is “approximately 6 fold”.
`NC(=O)c1cc(-c2ccccc2)nc2c1cnn2Cc1ccncc1` [Compound 22, 6-Phenyl-1-(pyridin-4-ylmethyl)-1H-pyrazolo[3,4-b]pyridine-4-carboxamide]: on BasE [2], the “fold loss of affinity/potency toward BasE relative to 15” value was 1.8 fold and 2 fold.
Take `O=C(O)c1cc(-c2ccccc2)nc2c1cnn2Cc1ccc(O)cc1` [Compound 32, 1-(4-Hydroxybenzyl)-6-phenyl-1H-pyrazolo[3,4-b]pyridine-4-carboxylic acid]: the “fold loss of affinity/potency toward BasE relative to 15” value at BasE [2] came out at 15 fold.
Take `Cc1ccc(-c2cc(C(=O)O)c3cnn(Cc4ccncc4)c3n2)cc1` [Compound 39]: the “fold increase in affinity toward MbtA relative to 15” value at MbtA (ratio of KD of lead compound 15 to compound) is 2.6 fold.
On to `O=C(O)c1cc(-c2ccccc2O)nc2c1cnn2Cc1ccncc1` [Compound 40], for which, at BasE [2], the “fold loss of affinity/potency toward BasE relative to 15” value is 7 fold.
Consider `O=C(O)c1cc(-c2ccc(O)cc2)nc2c1cnn2Cc1ccncc1` [Compound 42, 6-(4-Hydroxyphenyl)-1-(pyridin-4-ylmethyl)-1H-pyrazolo[3,4-b]pyridine-4-carboxylic acid], for which, at BasE [2], the Kd was below 10 nM and the “fold increase in affinity toward BasE relative to 15” value is listed as “more than 4 fold”.
In the case of `O=C(O)c1cc(-c2cccc(Cl)c2)nc2c1cnn2Cc1ccncc1` [Compound 45], on BasE [2], the Kd was below 10 nM and the “fold increase in affinity toward BasE relative to 15” value is recorded as “more than 4 fold”.
In the case of `Nc1ccc(-c2cc(C(=O)O)c3cnn(Cc4ccncc4)c3n2)cc1` [Compound 52], at BasE [2], the “fold loss of affinity/potency toward BasE relative to 15” value is on record as 2.2 fold.
For the compound `CC(=O)Nc1ccc(-c2cc(C(=O)O)c3cnn(Cc4ccncc4)c3n2)cc1` [Compound 54], on BasE [2], the “fold loss of affinity/potency toward BasE relative to 15” value is recorded as “over 20 fold”.
As to `O=C(O)c1ccc(-c2cc(C(=O)O)c3cnn(Cc4ccncc4)c3n2)cc1` [Compound 58], the “fold loss of affinity/potency toward BasE relative to 15” value at BasE [2] was “over 20 fold”. Further, the “fold loss of affinity toward MbtA relative to 15” value at MbtA was determined as 2 fold.
On to `COc1ccc(-c2cc(C(=O)O)c3cnn(Cc4ccncc4)c3n2)cc1` [Compound 62], for which, on BasE [2], the “fold loss of affinity/potency toward BasE relative to 15” value stood at 2.2 fold.
Regarding `O=C(O)c1cc(-c2ccc(OCc3ccccc3)cc2)nc2c1cnn2Cc1ccncc1` [Compound 67], on BasE [2], the Kd was 2 nM and < 10 nM; the “fold increase in affinity toward BasE relative to 15” value stood at 17 fold.
Consider `COc1ccc(COc2ccc(-c3cc(C(=O)O)c4cnn(Cc5ccncc5)c4n3)cc2)cc1` [Compound 68], for which the “fold less potent than 67 toward BasE” value at BasE [2] (relative to p-benzyloxy 67) is 21 fold.
Turning to `O=C(c1ccccc1)c1ccc(-c2cc(C(=O)O)c3cnn(Cc4ccncc4)c3n2)cc1` [Compound 70], on BasE [2], the Kd came out at 19 nM and the “fold increase in affinity toward BasE relative to 15” value was found to be 2 fold.
`O=C(O)c1cc(-c2ccc(-c3ccccc3)cc2)nc2c1cnn2Cc1ccncc1` [Compound 72]: the “fold loss of affinity/potency toward BasE relative to 15” value at BasE [2] came to 3.5 fold.
As for `O=C(O)c1cc(-c2ccco2)nc2c1cnn2Cc1ccncc1` [Compound 75], the “fold loss of affinity/potency toward BasE relative to 15” value on BasE [2] was ~ 10 fold.
Regarding `O=C(O)c1cc(-c2cccs2)nc2c1cnn2Cc1ccncc1` [Compound 76], on BasE [2], the “fold loss of affinity/potency toward BasE relative to 15” value is given as ~ 10 fold.
With `Cc1ccsc1-c1cc(C(=O)O)c2cnn(Cc3ccncc3)c2n1` [Compound 77], on BasE [2], the “fold loss of affinity/potency toward BasE relative to 15” value was found to be 9 fold.
With `Cc1csc(-c2cc(C(=O)O)c3cnn(Cc4ccncc4)c3n2)c1` [Compound 78], on BasE [2], the “fold loss of affinity/potency toward BasE relative to 15” value came out at 2.4 fold.
With `Cc1ccc(-c2cc(C(=O)O)c3cnn(Cc4ccncc4)c3n2)s1` [Compound 79], on BasE [2], the Kd is below 10 nM and the “fold increase in affinity toward BasE relative to 15” value came out at 5 fold.
As to `O=C(O)c1cc(-c2cncc3ccccc23)nc2c1cnn2Cc1ccncc1` [Compound 86], the “fold loss of affinity/potency toward BasE relative to 15” value at BasE [2] is 215 fold.
Consider `O=C(O)c1cc(-c2ccc3[nH]ccc3c2)nc2c1cnn2Cc1ccncc1` [Compound 87], for which the “fold loss of affinity/potency toward BasE relative to 15” value on BasE [2] is listed as 1.7 fold.
With `C=Cc1cc(C(=O)O)c2cnn(Cc3ccncc3)c2n1` [Compound 91], at BasE [2], the “fold loss of affinity/potency toward BasE relative to 15” value was ~ 55 fold.
With `O=C(O)c1cc(/C=C/c2ccccc2)nc2c1cnn2Cc1ccncc1` [Compound 92], on BasE [2], the “fold loss of affinity/potency toward BasE relative to 15” value is reported as ~ 10 fold.
`C#Cc1cc(C(=O)O)c2cnn(Cc3ccncc3)c2n1` [Compound 93, 6-Ethynyl-1-(pyridin-4-ylmethyl)-1H-pyrazolo[3,4-b]pyridine-4-carboxylic acid]: the “fold loss of affinity/potency toward BasE relative to 15” value at BasE [2] is given as ~ 55 fold.
As for `O=C(O)c1cc(C#Cc2ccccc2)nc2c1cnn2Cc1ccncc1` [Compound 94, 6-(Phenylethynyl)-1-(pyridin-4-ylmethyl)-1H-pyrazolo[3,4-b]pyridine-4-carboxylic acid], at BasE [2], the “fold loss of affinity/potency toward BasE relative to 15” value is ~ 10 fold.
`O=C(O)c1cc(=O)[nH]c2c1cnn2Cc1ccncc1` [Compound 98, 6-Oxo-1-(pyridin-4-ylmethyl)-6,7-dihydro-1H-pyrazolo[3,4-b]pyridine-4-carboxylic acid]: the “fold loss of affinity/potency toward BasE relative to 15” value on BasE [2] is given as above 2800 fold.
For `O=C(O)c1cc(-c2ccccc2)cc2nn(Cc3ccncc3)cc12` [Compound 99, 6-Phenyl-2-(pyridin-4-ylmethyl)-2H-indazole-4-carboxylic acid], the “fold loss of affinity/potency toward BasE relative to 15” value at BasE [2] worked out at 1800 fold. In addition, the “fold loss of affinity toward MbtA relative to 15” value at MbtA was determined as 15.5 fold.
